The source of these data is patent publication US10626095B2, “Cyanotriazole compounds” (OTSUKA PHARMACEUTICAL CO., LTD., priority 2013, dated 2020).

For data set [1], the system named is NaCT-CHO (CHO cells stably expressing human NaCT). In words: Assay of the citric acid cycle activation ([1,5-14C]-citric acid, diffusion of [14C]-CO2). It is filed as cell-based. The conditions noted are these: 1 hour incubation at 37° C. with [1,5-14C]-citric acid. The procedure, abridged:
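NaCT-CHO cells (pME-CHO empty-vector cells for non-specific counts) were incubated 1 h at 37 °C in Na+-containing HEPES-Tris pH 7.4 with compound plus an equal volume of 0.4 mM [1,5-14C]-citric acid solution. Residual cell radioactivity was counted, [14C]-CO2 diffusion was taken as (Total−R)/(Total−NS)×100%, and EC50 was derived by regression.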

Data set [2] deals with Zucker Diabetic Fatty (ZDF) rat. In words: Meal load test in type 2 diabetic model rats (postprandial blood glucose). It is filed as in vivo. Particulars: ZDF rats fasted overnight, oral 10 mg/kg in 5% Arabia gum, blood glucose one hour after meal loading (50 kcal/kg). Also noted: unit not given here. A digest of the protocol:
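Overnight-fasted (17 h) ZDF rats, n=6 per group, given compound at 10 or 30 mg/kg orally in 5% Arabia gum 2 h before or just before a 50 kcal/kg AIN-93G meal load. Blood glucose at 1 h; effect expressed as BG1h difference from vehicle.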

For `N#Cc1[nH]nnc1-c1cccc(-c2cc3ccccc3o2)n1` [Example 1573, 5-(6-(benzofuran-2-yl)-pyridin-2-yl)-3H-[1,2,3]triazole-4-carbonitrile], the melting point fell in the range of 230 to 233 °C. The midpoint of the response in data set [1], the EC50, lay at 1.03 µM. For the same compound, in data set [2], the “BG1h (BG1h difference between compound group and vehicle group)” value was −132.7.

For `N#Cc1[nH]nnc1-c1cccc(/C=C/c2ccc(F)cc2C(F)(F)F)c1` [Example 600, 5-{3-[(E)-2-(4-fluoro-2-trifluoromethyl-phenyl)-vinyl]-phenyl}-3H-[1,2,3]triazole-4-carbonitrile], the melting point was 189 to 192 °C. The same compound gave an EC50 in data set [1] of 0.43 µM. Besides, the “BG1h (BG1h difference between compound group and vehicle group)” value in data set [2] is listed as −74.0.
